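1) Cells in 96-well plates. 2) Compound, 48 h, 5 concentrations. 3) Linear interpolation between surrounding doses. 4) Unreached endpoint = highest concentration. Here, GI50 denotes the concentration required for 50% inhibition of growth. TGI marks complete inhibition of growth.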 Where a SMILES comes first, the peptide text is derived from it. [ ]: non-standard residue; d: D form. pGlu = O=C1CC[CH](C(=O)O)N1; Thz = O=C(O)[CH]1CSCN1
What was measured:
Experiment in all cases: NCI tumour cell line growth inhibition, 48 h
[1] = tested on: SF-539 CNS
[2] = tested on: HOP-62 NSCLC
[3] = tested on: UACC-62 melanoma
[4] = tested on: MDA-MB-231 breast
[5] = tested on: SK-OV-3 ovarian
[6] = tested on: CAKI-1 renal
[7] = tested on: SR leukemia
[8] = tested on: HOP-92 NSCLC
[9] = tested on: HS 578T breast
[10] = tested on: OVCAR-8 ovarian
[11] = tested on: NCI-H522 lung
[12] = tested on: M14 melanoma
[13] = tested on: SF-295 CNS

| SMILES | TGI [1] [µM] | TGI [2] [µM] | TGI [3] [µM] | TGI [4] [µM] | TGI [5] [µM] | TGI [6] [µM] | TGI [7] [µM] | TGI [8] [µM] | TGI [9] [µM] | TGI [10] [µM] | TGI [11] [µM] | TGI [12] [µM] | TGI [13] [µM] | GI50 [3] [µM] | GI50 [5] [µM] | GI50 [6] [µM] | GI50 [7] [µM] | GI50 [9] [µM] | GI50 [11] [µM] | GI50 [13] [µM] |
| --- | --- | --- | --- | --- | --- | --- | --- | --- | --- | --- | --- | --- | --- | --- | --- | --- | --- | --- | --- | --- |
| Cc1ncn(-c2ccccc2O)c1C | > 100 | > 100 | > 100 | > 100 | > 100 | > 100 | > 100 | > 100 | > 100 | > 100 | > 100 | > 100 | > 100 |  |  |  |  |  |  |  |
| O=c1onc2n1-c1ccc(Cl)cc1C(=S)N1CSCC21 (stereo not drawn) |  | > 100 | > 100 | 41.8 | 49.4 | > 100 | 48.1 |  | 53.9 | 39.8 | 62.9 | 28.8 | 41.9 |  |  |  |  |  |  |  |
| CCOP(=O)(CC(=O)C1CC1)OCC | > 100 | > 100 | > 100 | > 100 | > 100 | > 100 | > 100 |  | > 100 | > 100 | > 100 | > 100 | > 100 |  |  |  |  |  |  |  |
| FC1(F)ON2CCc3ccccc3C2[C@H]1c1ccccc1 (stereo partly drawn) | > 100 | > 100 | > 100 | > 100 | > 100 | > 100 | > 100 |  | > 100 | > 100 | > 100 | > 100 | > 100 | > 100 | > 100 | > 100 | > 100 | 45.9 | > 100 | > 100 |
| NCC(=O)Nc1ccccc1 |  | > 100 | > 100 | > 100 |  | > 100 | > 100 | > 100 | > 100 | > 100 | > 100 | > 100 | > 100 |  |  |  |  |  |  |  |
| Cc1cc(N(CCC#N)CCC#N)ccc1/C(N=Nc1ccc([N+](=O)[O-])cc1)=N\NC(=O)c1cc(Cl)ccc1O | > 100 | > 100 | 67.6 | > 100 | > 100 | > 100 | > 100 |  | 91.7 | 63 | 23.9 | > 100 | > 100 |  |  |  |  |  |  |  |
| CC1C(C)(C)C23CC12C1(OCCO1)C3Br (stereo not drawn) | > 100 | > 100 | > 100 | > 100 | > 100 | > 100 | > 100 |  | > 100 | > 100 |  | > 100 | > 100 |  |  |  |  |  |  |  |
| CCn1c(SCC(=O)N/N=C2\SCC(=O)N2c2ccc(C)cc2)nc2ccccc2c1=O | 33.5 | 50.7 | 29.1 | 36.3 | 36 | 33.2 | 47.2 |  | 41.7 | 35.5 | 62.1 | > 100 | 36.2 |  |  |  |  |  |  |  |
| Cc1nc(OCc2ccccc2)c2ncn(CCO)c2n1 | > 100 |  | > 100 | > 100 | > 100 | > 100 | > 100 | > 100 | > 100 |  | > 100 | > 100 | > 100 |  |  |  |  |  |  |  |
| COc1ccc(/C=N\N(C)Cc2cccc3ccsc23)cc1 |  | > 100 | > 100 | > 100 | > 100 | > 100 | > 100 | > 100 | > 100 | > 100 | > 100 | > 100 | > 100 |  |  |  |  |  |  |  |
| CCOC(=O)c1c(N)sc2c1CC(C)CC2 (stereo not drawn) |  | > 100 | > 100 | > 100 | > 100 | > 100 | 86.8 | 74.2 | > 100 | > 100 | 40.5 | > 100 | > 100 |  |  |  |  |  |  |  |
| CCOC(=O)c1c(O)cn2c1[nH]c1cccc3cccc2c31 |  | > 100 | > 100 | > 100 | > 100 | > 100 | > 100 | > 100 | > 100 | > 100 | > 100 | > 100 | > 100 |  |  |  |  |  |  |  |
| COC(=O)C(Cc1c[nH]c2ccccc12)NC(=O)C(Cc1cnc[nH]1)NC(=O)C1CCC(=O)N1C(=O)OCc1ccccc1 (stereo not drawn) |  | > 100 | > 100 |  |  |  | > 100 | > 100 | > 100 | > 100 |  | > 100 |  |  |  |  |  |  |  |  |
| CN1CCC2(CC1)SSC1(CCN(C)CC1)S2 | > 100 | > 100 | > 100 | > 100 | > 100 |  | > 100 | > 100 | > 100 | > 100 |  | > 100 | > 100 |  |  |  |  |  |  |  |
| Cc1ccc2c(c1)nc1n2C(c2c(F)cccc2F)SC1 (stereo not drawn) | 59.2 | > 100 |  | > 100 | > 100 | > 100 | 87.9 |  | 92.7 | > 100 | > 100 | > 100 | > 100 |  |  |  |  |  |  |  |
| O=C(OC1=CCN(Br)C1=O)C1=C(O)C(=O)N(Br)C1 |  | 51.7 | 36.3 | 86.3 | 71.2 | > 100 | 52.3 |  | > 100 | > 100 | 31.4 | > 100 | 69.7 |  |  |  |  |  |  |  |
| O=C1CCC(C(=O)N2CSCC2C(=O)O)N1 (stereo not drawn) ([pGlu]-[Thz]-OH; configuration not given here) | > 100 | > 100 | > 100 | > 100 | > 100 | > 100 | > 100 |  | > 100 | > 100 | > 100 | > 100 | > 100 |  |  |  |  |  |  |  |
| CC(NC(=O)C1CCC(=O)N1)C(=O)N1CCCC1C(N)=O (stereo not drawn) ([pGlu]-Ala-Pro-NH2; configuration not given here) |  | > 100 | > 100 | > 100 | > 100 | > 100 | > 100 | > 100 | > 100 | > 100 | > 100 | > 100 | > 100 |  |  |  |  |  |  |  |
| CN(C)Cc1cc(Cl)c(O)c(CN(C)C)c1 |  | > 100 | > 100 | > 100 | > 100 | > 100 | > 100 | > 100 | > 100 | > 100 | > 100 | > 100 | > 100 |  |  |  |  |  |  |  |
| O=C(Cc1ccc2ccccc2c1)NCc1ccc(C(=O)NCCc2ccccc2)cc1 |  | > 100 | > 100 | > 100 | > 100 | > 100 | > 100 | > 100 | > 100 | > 100 | > 100 | > 100 | > 100 |  |  |  |  |  |  |  |
| COC1OC2COC1(OCc1ccccc1)C1OC(C)(C)OC21 (stereo not drawn) |  | > 100 | > 100 | > 100 | > 100 | > 100 | > 100 |  | > 100 | > 100 | > 100 | > 100 | > 100 |  |  |  |  |  |  |  |
| COc1ccc(CCN2CCN(CCCc3ccccc3)CC2)cc1 | > 100 | > 100 | > 100 | > 100 | > 100 | > 100 | > 100 |  | > 100 | > 100 | > 100 | > 100 | > 100 |  |  |  |  |  |  |  |
| ClCc1nc2ccccc2[nH]1 | > 100 | > 100 | > 100 | > 100 |  | > 100 | > 100 | > 100 | > 100 | > 100 | > 100 | > 100 | > 100 |  |  |  |  |  |  |  |
| COC(NC(=O)Nc1ccc(C)cc1)(C(F)(F)F)C(F)(F)F | > 100 | > 100 | > 100 | 99 | 76.4 |  | > 100 | 93.3 | > 100 | 78.5 | 60.1 | > 100 | 90.7 |  |  |  |  |  |  |  |
| Fc1cc(C2=Nn3c(COc4ccccc4Cl)nnc3S/C2=C\c2ccc(Cl)cc2)c(Cl)cc1Cl | > 100 | > 100 |  | > 100 | > 100 | 31.5 | > 100 | 20.2 | 36.4 | > 100 | 22.6 | 17 | > 100 |  |  |  |  |  |  |  |
| CC(C)(C)C1=C(Br)C(F)(C(C)(C)C)OP1(=O)c1ccccc1 (stereo not drawn) | 33.2 | 30 | 29.3 |  | 32.2 | 25.8 | 31.4 | 34.2 | 53.8 | 36.4 | 30.8 | 28.5 | 37 |  |  |  |  |  |  |  |
| O=P1(c2ccccc2)C(c2ccccc2)CCC1c1ccccc1 (stereo not drawn) | > 100 | > 100 | > 100 | > 100 | > 100 | 73.9 |  | > 100 | > 100 | > 100 | > 100 | > 100 | > 100 |  |  |  |  |  |  |  |
| Nc1nc(Cl)cc(NCC2(CCO)CCC2)n1 | > 100 | > 100 | > 10 | > 100 | > 100 | > 100 | > 100 | > 100 | > 100 | > 100 | > 100 |  | > 10 |  |  |  |  |  |  |  |
| O=C(Nc1ccccc1)N(CCN(Cc1ccccc1)C(=O)Nc1ccccc1)CCN(Nc1ccccc1)C(=O)Nc1ccccc1 |  | > 100 | > 100 | > 100 | > 100 | > 100 | > 100 | > 100 | > 100 | > 100 | > 100 | > 100 | > 100 |  |  |  |  |  |  |  |

Reference: PubChem BioAssay (NCI)
